Patent US20260001946A1, “TREATMENT OF A DISEASE OR CONDITION IN A TISSUE ORIGINATING FROM THE ENDODERM” (BT Bidco, Inc., priority 2018, published 2026)
Structures can show the parent of a compound that is named as a salt. Where two headings read alike, the source gives them in different places. Values belong to the molecule of their own block, whether it stands above or below them.

Assays:
[1] = Tacrolimus blood concentration and AUC0-12 hours after IC or PO administration; settings: female, Yorkshire-Cross, swine, in vivo
Experimental: FIG. 77 is a graph showing the mean concentration of tacrolimus in the blood 1 hour, 2 hours, 3 hours, 4 hours, 6 hours and 12 hours after intracecal (IC) or oral administration (PO) of tacrolimus to swine as described in Example 13.
FIG. 78 is a graph showing the AUC0-12 hours of tacrolimus in the blood after intracecal (IC) or oral administration (PO) of tacrolimus in swine as described in Example 13.
FIG. 87 is a graph showing the mean concentration of tacrolimus in the blood of swine 1 hour, 2 hours, 3 hours, 4 hours, 6 hours, and 12 hours after intracecal (IC) or oral administration (PO) of tacrolimus as described in Example 10.
FIG. 88 is a graph showing the AUC0-12 hours of tacrolimus in the blood of swine after intracecal (IC) or oral administration (PO) of tacrolimus as described in Example 10.

[2] = female, Yorkshire-Cross, swine, in vivo, po, 0.09 mg/kg
Experimental: FIG. 76 is a graph showing the mean concentration of tacrolimus in the cecum tissue and the proximal colon tissue 12 hours after intracecal or oral administration of tacrolimus to swine as described in Example 10.
FIG. 79 is a graph showing the mean concentration of tacrolimus in the cecum tissue, the proximal colon tissue, the spiral colon tissue, the transverse colon tissue, and the distal colon tissue after intracecal (IC) or oral administration (PO) of tacrolimus in swine as described in Example 13. ****P<0.0001, ***P<0.001.
FIG. 90 is a graph showing the mean concentration of tacrolimus in the cecum, the proximal colon, the spiral colon, the transverse colon, and the distal colon of swine after intracecal (IC) or oral administration (PO) of tacrolimus as described in Example 10.

[3] = Tissue, plasma, rectal sample and GI content pharmacokinetics of tacrolimus, oral vs intra-cecal ingestible device (Example 10); parameters: species or system Yorkshire-Cross farm swine; settings: in vivo
Experimental: The primary objective of this study was to compare the tissue, plasma, rectal sample, and GI content pharmacokinetics of tacrolimus through oral versus intra-cecal ingestible device delivery in normal Yorkshire-Cross farm swine.
(§1) No further randomization procedure was employed.
Animals in Group 1 received an ingestible device containing 0.8 mL of vehicle solution (80% alcohol, 20% HCO-60). Animals in Group 2 received orally […] liquid formulation of tacrolimus at 4 mg/0.8 mL per animal (Prograf: 5 mg/mL). Animals in Group 3 received intra-cecally an ingestible device containing tacrolimus at 1 mg in 0.8 mL per ingestible device. Animals in Group 4 received intra-cecally an ingestible device containing tacrolimus at 2 mg in 0.8 mL per ingestible device. Animals in Group 5 received intra-cecally an ingestible device containing tacrolimus at 4 mg in 0.8 mL per ingestible device. To control for potential confounding effects of the surgery, all groups fast on Day −11 at least 24 hr before being subjected to anesthesia followed by surgical placements of a cecal port by a veterinary surgeon at Day −10. All animals were fasted for at least 12 hr prior to dosing on Day 1. Animals were dosed via either intra-cecal dosing (IC) or oral dosing (PO) at Day 1 (between 6-8 p.m.). All animals resumed feeding at approximately 4 hours after dose (11-12 p.m. after dosing).
Animals in Group 1 (Vehicle Control) were administered a single intra-cecal ingestible device containing 0.8 mL Vehicle solution (80% alcohol, 20% castor oil (HCO-60) on Day 1. On Day −10 the animals were anesthetized, and a veterinary surgeon surgically placed an intra-cecal port in each animal. On Day 1, each animal was placed into a sling then a single intra-cecal ingestible device containing 0.8 mL vehicle solution (80% alcohol, 20% castor oil (HCO-60)) is introduced by the veterinary surgeon into the cecum via the cecal port in each animal. Following ingestible device placement, the animals were removed from the slings and placed back into their pens with water. All animals resumed feeding at approximately 4 hours after dose. […] A total of 60 samples were collected.
Approximately 200˜400 mg of rectal content were collected, if available, with a fecal swab (Copan Diagnostics Nylon Flocked Dry Swabs, 502CS01). The fecal swab was pre-weighed and weighed after collection in the collection tube (Sterile Tube and Cap No Media, PFPM913S), and the sample weight was recorded. The fecal swab was broken via the breakpoint, and was stored in the collection tube, and immediately frozen at −70° C. […] Immediately following euthanasia, tissue was collected.
For tissue necropsy, small intestine fluid and cecal fluid were collected separately from all the animals into two separate square plastic bottles, and stored at −20° C. The length and diameter of the cecum and the colon was measured from one animal in each group and recorded for reference. Tissues were collected for pharmacokinetic analyses and include mesenteric lymph nodes, a Peyer's Patch, and five gastrointestinal sections, including cecum, proximal colon, transverse colon, distal colon, and rectum. All samples were weighed, and the tissue sample weights were recorded. […] Around 3 grams of the total punched sample were collected into a pre-weighed 15-mL conical tube, and the tissue weight was recorded. […]

[4] = Pharmacokinetics of oral vs intra-cecal tacrolimus: blood, rectal contents, GI tissue and luminal content (Example 13); parameters: species or system Yorkshire-Cross farm swine; settings: in vivo
From the text: as §1

[5] = test system: IL-6, GM-CSF, IL-15, IL-2, IL-12, IL-13, TNF-α, INF-γ

concentration at 12 h ([1]; 0.02 mg/kg): 0.746 ± 0.038 ng/mL
concentration at 12 h ([1]; 0.04 mg/kg): 1.96 ± 0.491 ng/mL
concentration at 12 h ([1]; 0.09 mg/kg): 4.35 ± 0.516 ng/mL
concentration at 12 h ([1]; po, 0.09 mg/kg): 0.568 ± 0.291 ng/mL
Tissue(mean) (ng/g)/AUG(0-12 hr) (ng · hr/mL) Ratio [2]: 0
Tissue(mean) (ng/g)/AUG(0-12 hr) (ng · hr/mL) Ratio ([2]; 12 h): 0
exposure AUC [3]: < 2000-12 ng·h/mL
mean concentration of tacrolimus in the cecum tissue and the proximate colon tissue [3]: higher
tissue (spiral and transverse colon) and luminal content (spiral, transverse, and distal colon) concentrations [3]: Significantly higher
level of tacrolimus in tissue ([3]; po): No measurable level
rectal content concentration ([3]; po): no detectable level
concentration at 12 h ([4]; female, Yorkshire-Cross, swine, 0.02 mg/kg, Trough (12 hr)): 0.746 ± 0.038 ng/mL
concentration at 12 h ([4]; female, Yorkshire-Cross, swine, 0.04 mg/kg, Trough (12 hr)): 1.96 ± 0.491 ng/mL
concentration at 12 h ([4]; female, Yorkshire-Cross, swine, 0.09 mg/kg, Trough (12 hr)): 4.35 ± 0.561 ng/mL
Ratio Tissue(mean)/Trough(12 hr) ([4]; female, Yorkshire-Cross, swine, po, 0.09 mg/kg, 12 h): 0
Kp at 12 h ([4]; female, Yorkshire-Cross, swine, po, 0.09 mg/kg, Ratio Tissue(mean)/Trough(12 hr)): 0
concentration at 12 h ([4]; female, Yorkshire-Cross, swine, po, 0.09 mg/kg, Trough (12 hr)): 0.568 ± 0.291 ng/mL
concentration at 12 h ([4]; female, Yorkshire-Cross, swine, po, 0.09 mg/kg, Trough level (12 hr)): 0.568 ng/mL
mean concentration of tacrolimus in the spiral colon lumen, the transverse colon lumen, and the distal colon lumen [4]: statistically higher
mean concentration of tacrolimus in the spiral colon tissue and the transverse colon tissue [4]: statistically higher
mean concentration and AUC0-12 hours of tacrolimus in the blood ([4]; po, 0.09 mg/kg): higher
Compound: C=CC[C@@H]1/C=C(\C)C[C@H](C)C[C@H](OC)[C@H]2O[C@@](O)(C(=O)C(=O)N3CCCC[C@H]3C(=O)O[C@H](/C(C)=C/[C@@H]3CC[C@@H](O)[C@H](OC)C3)[C@H](C)[C@@H](O)CC1=O)[C@H](C)C[C@@H]2OC [tacrolimus]

Compound: C[C@@H]1CCN(C(=O)CC#N)C[C@@H]1N(C)c1ncnc2[nH]ccc12 [tofacitinib citrate]
IL-6 expression in plasma ([5]; PO or IC administration, 1 h and 3 h post-treatment): inhibition of IL-6 expression
inhibition of IL-6 expression in colon tissue ([5]; all IC treated groups and high dose PO group (45 mg/kg) (FIG. 112B)): sustained through 24 h post-dose
GM-CSF levels in plasma or colon tissue ([5]; between IC and PO treatment groups): nor was there a significant difference
IL-6 inhibition in colon tissue ([5]; low dose PO group (15 mg/kg), by 12 h post-dose): Recovery from IL-6 inhibition was observed
